Data taken from ChEMBL document CHEMBL4376834, “Discovery of 4H-Chromen-4-one Derivatives as a New Class of Selective Rho Kinase (ROCK) Inhibitors, which Showed Potent Activity in ex Vivo Diabetic Retinopathy Models” (J Med Chem, 2019).

What was measured:
[1] = target: Rho-associated protein kinase 2 (Homo sapiens, UniProt O75116); assay: Inhibition of recombinant human ROCK2 (11 to 552 residues) using KEAKEKRQEQIAKR as substrate incubated for 40 mins in presence of [gamma-33P]ATP and 10 uM ATP by radiometric scintillation counting analysis
[2] = target: Tyrosine-protein kinase Blk (Homo sapiens, UniProt P51451); assay: Inhibition of human full-length recombinant BLK M287V mutant using poly(Glu, Tyr) 4:1 as substrate measured after 40 mins in presence of [gamma33P]ATP by radiometric scintillation counting analysis
[3] = target: Cyclin-dependent kinase-like 4 (Homo sapiens, UniProt Q5MAI5); assay: Inhibition of recombinant full length human CDKL4 in presence of [gamma-33ATP] by radiometric scintillation counting analysis
[4] = target: Casein kinase I isoform gamma-2 (Homo sapiens, UniProt P78368); assay: Inhibition of recombinant human CK1gamma2 (18 to end residues) using KRRRALS(p)VAS as substrate incubated for 40 mins in presence of [gamma-33ATP] by radiometric scintillation counting analysis
[5] = target: Serine/threonine-protein kinase DCLK3 (Homo sapiens, UniProt Q9C098); assay: Inhibition of recombinant human DCAMKL3 (345 to end residues) using KKLNRTLSFAEPG as substrate after 40 mins in presence of [gamma-33ATP] by radiometric scintillation counting analysis
Myotonin-protein kinase = Myotonin-protein kinase (Homo sapiens, UniProt Q09013); assay: Inhibition of recombinant human DMPK (1 to 549 residues) using KKSRGDYMTMQIG as substrate after 40 mins in presence of [gamma-33ATP] by radiometric scintillation counting analysis
[6] = Inhibition of recombinant human PKCeta V108L/G109R/L392Q triple mutant (2 to end residues) using ERMRPRKRQGSVRR as substrate incubated for 40 mins in presence of [gamma33P]ATP by radiometric scintillation counting analysis
[7] = target: Protein kinase C beta type (Homo sapiens, UniProt P05771); assay: Inhibition of recombinant human PKCbeta1 (2 to end residues) using histone H1 as substrate incubated for 40 mins in presence of [gamma33P]ATP by radiometric scintillation counting analysis
[8] = target: Serine/threonine-protein kinase Nek1 (Homo sapiens, UniProt Q96PY6); assay: Inhibition of recombinant human NEK1 (1 to 505 residues) using RLGRDKYKTLRQI as substrate measured after 40 mins in presence of [gamma33P]ATP by radiometric scintillation counting analysis
[9] = target: Serine/threonine-protein kinase 26 (Homo sapiens, UniProt Q9P289); assay: Inhibition of recombinant human MST4 (4 to 304 residues) using RLGRDKYKTLRQI as substrate measured after 40 mins in presence of [gamma33P]ATP by radiometric scintillation counting analysis
[10] = target: Hepatocyte growth factor receptor (Homo sapiens, UniProt P08581, Y1230C); assay: Inhibition of recombinant human MET A1209G/V1290L/Y1248C triple mutant (974 to end residues) using KKKGQEEEYVFIE as substrate incubated for 40 mins in presence of [gamma-33ATP by radiometric scintillation counting analysis
[11] = target: Hepatocyte growth factor receptor (Homo sapiens, UniProt P08581, M1250T); assay: Inhibition of recombinant human MET A1209G/V1290L/M1268T triple mutant (974 to end residues) using KKKGQEEEYVFIE as substrate incubated for 40 mins in presence of [gamma-33ATP by radiometric scintillation counting analysis
[12] = target: Serine/threonine-protein kinase PAK 5 (Homo sapiens, UniProt Q9P286); assay: Inhibition of recombinant human PAK5 (425 to end residues) using RRRLSFAEPG as substrate measured after 40 mins in presence of [gamma33P]ATP by radiometric scintillation counting analysis
[13] = target: Serine/threonine-protein kinase PAK 4 (Homo sapiens, UniProt O96013); assay: Inhibition of recombinant human PAK4 (295 to end residues) using myelin basic protein as substrate measured after 40 mins in presence of [gamma33P]ATP by radiometric scintillation counting analysis
[14] = target: Receptor tyrosine-protein kinase erbB-4 (Homo sapiens, UniProt Q15303); assay: Inhibition of recombinant human ERBB4 (706 to 991 residues) using poly(Glu, Tyr) 4:1 as substrate after 40 mins in presence of [gamma-33ATP] by radiometric scintillation counting analysis
[15] = target: Homeodomain-interacting protein kinase 4 (Homo sapiens, UniProt Q8NE63); assay: Inhibition of human recombinant full length HIPK4 using RRRFRPASPLRGP as substrate after 40 mins by [gamma-33ATP] radiometric assay
[16] = target: Mitogen-activated protein kinase kinase kinase kinase 1 (Homo sapiens, UniProt Q92918); assay: Inhibition of human recombinant HPK1 (1 to 346 residues) using myelin basic protein as substrate after 40 mins by [gamma-33ATP] radiometric assay
[17] = target: Serine/threonine-protein kinase ICK (Homo sapiens, UniProt Q9UPZ9); assay: Inhibition of human recombinant ICK (1 to 312 residues) using RRRFRPASPLRGP as substrate after 40 mins by [gamma-33ATP] by radiometric scintillation counting analysis
[18] = target: Inhibitor of nuclear factor kappa-B kinase subunit epsilon (Homo sapiens, UniProt Q14164); assay: Inhibition of recombinant full length human IKKepsilon using casein as substrate after 40 mins by [gamma-33ATP] by radiometric scintillation counting analysis
[19] = target: Mitogen-activated protein kinase 8 (Homo sapiens, UniProt P45983); assay: Inhibition of recombinant full length human JNK1alpha1 using ATF2 as substrate after 40 mins by [gamma-33ATP] by radiometric scintillation counting analysis
[20] = target: Serine/threonine-protein kinase PLK2 (Homo sapiens, UniProt Q9NYY3); assay: Inhibition of recombinant human SNK (65 to 409 residues) using casein as substrate incubated for 40 mins in presence of [gamma33P]ATP by radiometric scintillation counting analysis
[21] = target: Serine/threonine-protein kinase 32C (Homo sapiens, UniProt Q86UX6); assay: Inhibition of recombinant human full length STK32C using casein as substrate incubated for 120 mins in presence of [gamma33P]ATP by radiometric scintillation counting analysis
[22] = target: Serine/threonine-protein kinase TAO2 (Homo sapiens, UniProt Q9UL54); assay: Inhibition of recombinant human TAO2 (1 to 320 residues) using myelin basic protein as substrate incubated for 40 mins in presence of [gamma33P]ATP by radiometric scintillation counting analysis
[23] = Inhibition of activated recombinant human TEC F514V mutant (174 to end residues) using EFPIYDFLPAKKK as substrate incubated for 40 mins in presence of [gamma33P]ATP by radiometric scintillation counting analysis
[24] = target: Tyrosine-protein kinase Yes (Homo sapiens, UniProt P07947); assay: Inhibition of recombinant full-length human Yes using poly(Glu, Tyr) 4:1 as substrate incubated for 40 mins in presence of [gamma33P]ATP by radiometric scintillation counting analysis
[25] = target: DNA-dependent protein kinase catalytic subunit (Homo sapiens, UniProt P78527); assay: Inhibition of recombinant full length human DNA-PK using GST-cMyc-p53 as substrate incubated for 40 mins by fluorescence assay

Sequence of Receptor tyrosine-protein kinase erbB-4 (Q15303 whole entry, the tested form may be a part): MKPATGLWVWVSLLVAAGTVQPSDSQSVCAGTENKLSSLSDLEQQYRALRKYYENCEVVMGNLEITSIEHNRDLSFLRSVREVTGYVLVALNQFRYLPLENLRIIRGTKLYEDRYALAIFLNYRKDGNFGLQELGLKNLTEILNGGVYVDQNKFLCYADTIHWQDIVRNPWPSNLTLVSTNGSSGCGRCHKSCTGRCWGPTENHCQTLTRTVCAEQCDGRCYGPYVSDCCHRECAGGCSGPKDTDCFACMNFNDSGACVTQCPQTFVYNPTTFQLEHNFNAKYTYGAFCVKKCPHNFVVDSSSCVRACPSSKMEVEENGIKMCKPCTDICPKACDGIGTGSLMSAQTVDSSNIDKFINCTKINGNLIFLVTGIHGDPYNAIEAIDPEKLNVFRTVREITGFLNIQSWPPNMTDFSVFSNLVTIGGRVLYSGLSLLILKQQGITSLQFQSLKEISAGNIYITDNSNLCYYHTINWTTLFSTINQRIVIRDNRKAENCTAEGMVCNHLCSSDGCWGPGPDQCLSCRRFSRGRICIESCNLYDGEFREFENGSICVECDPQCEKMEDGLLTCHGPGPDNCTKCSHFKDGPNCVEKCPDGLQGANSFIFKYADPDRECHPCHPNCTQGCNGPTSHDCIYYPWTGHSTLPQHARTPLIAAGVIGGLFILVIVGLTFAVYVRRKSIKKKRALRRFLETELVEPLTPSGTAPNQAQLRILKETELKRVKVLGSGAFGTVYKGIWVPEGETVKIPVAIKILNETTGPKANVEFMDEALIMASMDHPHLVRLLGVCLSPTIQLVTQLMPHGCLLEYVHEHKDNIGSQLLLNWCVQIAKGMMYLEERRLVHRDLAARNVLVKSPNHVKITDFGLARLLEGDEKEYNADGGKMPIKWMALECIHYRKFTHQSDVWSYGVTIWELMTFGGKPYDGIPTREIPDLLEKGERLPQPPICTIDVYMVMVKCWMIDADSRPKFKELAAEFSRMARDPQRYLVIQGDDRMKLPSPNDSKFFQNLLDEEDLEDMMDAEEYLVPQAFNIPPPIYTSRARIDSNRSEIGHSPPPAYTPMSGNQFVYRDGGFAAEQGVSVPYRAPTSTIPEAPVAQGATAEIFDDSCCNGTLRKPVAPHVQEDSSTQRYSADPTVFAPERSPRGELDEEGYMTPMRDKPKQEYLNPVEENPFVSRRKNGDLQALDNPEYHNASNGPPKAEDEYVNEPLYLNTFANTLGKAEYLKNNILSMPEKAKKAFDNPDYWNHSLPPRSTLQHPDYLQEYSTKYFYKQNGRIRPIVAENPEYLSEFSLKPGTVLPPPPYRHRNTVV
Sequence of Myotonin-protein kinase (Q09013 whole entry, the tested form may be a part): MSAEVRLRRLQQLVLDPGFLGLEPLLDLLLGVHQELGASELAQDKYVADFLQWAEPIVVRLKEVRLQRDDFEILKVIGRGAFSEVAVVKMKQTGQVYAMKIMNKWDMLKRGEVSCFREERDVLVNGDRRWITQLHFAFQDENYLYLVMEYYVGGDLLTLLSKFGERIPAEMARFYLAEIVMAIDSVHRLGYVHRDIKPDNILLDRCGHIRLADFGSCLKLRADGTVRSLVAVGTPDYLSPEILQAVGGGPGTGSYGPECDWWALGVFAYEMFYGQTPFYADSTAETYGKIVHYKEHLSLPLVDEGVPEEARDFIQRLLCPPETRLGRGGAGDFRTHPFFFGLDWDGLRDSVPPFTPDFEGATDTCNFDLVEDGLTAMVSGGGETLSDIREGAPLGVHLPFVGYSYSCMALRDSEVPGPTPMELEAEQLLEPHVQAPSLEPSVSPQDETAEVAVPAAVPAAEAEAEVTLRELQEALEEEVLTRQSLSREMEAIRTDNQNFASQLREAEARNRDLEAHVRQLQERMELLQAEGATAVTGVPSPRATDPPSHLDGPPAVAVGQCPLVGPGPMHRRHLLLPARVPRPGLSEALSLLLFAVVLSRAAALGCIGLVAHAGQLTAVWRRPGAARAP
Sequence of Tyrosine-protein kinase Yes (P07947 whole entry): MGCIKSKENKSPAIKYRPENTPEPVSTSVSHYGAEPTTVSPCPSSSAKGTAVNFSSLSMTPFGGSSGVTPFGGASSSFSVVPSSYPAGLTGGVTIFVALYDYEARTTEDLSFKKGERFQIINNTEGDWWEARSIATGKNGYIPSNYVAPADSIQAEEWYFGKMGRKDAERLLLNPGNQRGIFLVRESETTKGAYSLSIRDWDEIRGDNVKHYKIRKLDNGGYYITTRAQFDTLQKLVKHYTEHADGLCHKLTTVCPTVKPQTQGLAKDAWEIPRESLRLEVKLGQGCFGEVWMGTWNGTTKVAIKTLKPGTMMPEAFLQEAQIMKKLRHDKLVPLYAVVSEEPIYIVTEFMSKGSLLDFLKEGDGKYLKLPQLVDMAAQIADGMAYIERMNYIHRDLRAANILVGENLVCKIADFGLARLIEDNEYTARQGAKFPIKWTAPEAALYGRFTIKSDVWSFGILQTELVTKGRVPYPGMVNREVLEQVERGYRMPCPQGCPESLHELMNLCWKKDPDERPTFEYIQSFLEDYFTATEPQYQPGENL
Sequence of Serine/threonine-protein kinase TAO2 (Q9UL54 whole entry, the tested form may be a part): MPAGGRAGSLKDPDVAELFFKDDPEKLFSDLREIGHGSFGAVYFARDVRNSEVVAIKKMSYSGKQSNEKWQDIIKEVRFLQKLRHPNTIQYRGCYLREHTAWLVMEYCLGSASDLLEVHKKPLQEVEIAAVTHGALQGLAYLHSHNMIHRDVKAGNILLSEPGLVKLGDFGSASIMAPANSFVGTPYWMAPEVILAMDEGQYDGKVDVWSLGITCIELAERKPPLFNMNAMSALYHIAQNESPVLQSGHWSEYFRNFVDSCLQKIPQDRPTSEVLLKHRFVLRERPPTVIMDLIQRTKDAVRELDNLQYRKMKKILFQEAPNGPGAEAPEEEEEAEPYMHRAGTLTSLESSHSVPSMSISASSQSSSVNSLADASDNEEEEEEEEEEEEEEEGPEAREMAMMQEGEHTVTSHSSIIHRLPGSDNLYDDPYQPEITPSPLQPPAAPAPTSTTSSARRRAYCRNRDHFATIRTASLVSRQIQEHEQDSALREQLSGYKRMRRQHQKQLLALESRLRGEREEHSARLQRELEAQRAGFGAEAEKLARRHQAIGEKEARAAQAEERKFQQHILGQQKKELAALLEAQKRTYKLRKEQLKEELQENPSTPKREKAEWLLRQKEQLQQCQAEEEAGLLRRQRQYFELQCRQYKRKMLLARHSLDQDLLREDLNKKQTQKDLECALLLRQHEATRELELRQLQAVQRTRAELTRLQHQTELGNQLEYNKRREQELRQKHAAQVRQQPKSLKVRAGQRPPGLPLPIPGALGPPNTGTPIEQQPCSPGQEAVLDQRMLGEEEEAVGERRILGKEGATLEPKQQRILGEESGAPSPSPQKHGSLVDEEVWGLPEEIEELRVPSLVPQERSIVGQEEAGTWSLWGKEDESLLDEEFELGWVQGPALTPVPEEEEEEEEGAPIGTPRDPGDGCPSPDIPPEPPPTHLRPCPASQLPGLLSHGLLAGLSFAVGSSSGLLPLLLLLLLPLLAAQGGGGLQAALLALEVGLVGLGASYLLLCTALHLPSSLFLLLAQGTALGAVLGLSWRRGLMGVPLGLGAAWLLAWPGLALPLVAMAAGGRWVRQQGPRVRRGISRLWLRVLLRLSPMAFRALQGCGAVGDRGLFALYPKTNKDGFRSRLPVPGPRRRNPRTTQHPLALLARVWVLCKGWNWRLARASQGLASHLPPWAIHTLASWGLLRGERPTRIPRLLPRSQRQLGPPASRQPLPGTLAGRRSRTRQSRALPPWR
Sequence of Hepatocyte growth factor receptor (Homo sapiens, UniProt P08581, Y1230C) (P08581 25-1390 Y1230C limits assumed): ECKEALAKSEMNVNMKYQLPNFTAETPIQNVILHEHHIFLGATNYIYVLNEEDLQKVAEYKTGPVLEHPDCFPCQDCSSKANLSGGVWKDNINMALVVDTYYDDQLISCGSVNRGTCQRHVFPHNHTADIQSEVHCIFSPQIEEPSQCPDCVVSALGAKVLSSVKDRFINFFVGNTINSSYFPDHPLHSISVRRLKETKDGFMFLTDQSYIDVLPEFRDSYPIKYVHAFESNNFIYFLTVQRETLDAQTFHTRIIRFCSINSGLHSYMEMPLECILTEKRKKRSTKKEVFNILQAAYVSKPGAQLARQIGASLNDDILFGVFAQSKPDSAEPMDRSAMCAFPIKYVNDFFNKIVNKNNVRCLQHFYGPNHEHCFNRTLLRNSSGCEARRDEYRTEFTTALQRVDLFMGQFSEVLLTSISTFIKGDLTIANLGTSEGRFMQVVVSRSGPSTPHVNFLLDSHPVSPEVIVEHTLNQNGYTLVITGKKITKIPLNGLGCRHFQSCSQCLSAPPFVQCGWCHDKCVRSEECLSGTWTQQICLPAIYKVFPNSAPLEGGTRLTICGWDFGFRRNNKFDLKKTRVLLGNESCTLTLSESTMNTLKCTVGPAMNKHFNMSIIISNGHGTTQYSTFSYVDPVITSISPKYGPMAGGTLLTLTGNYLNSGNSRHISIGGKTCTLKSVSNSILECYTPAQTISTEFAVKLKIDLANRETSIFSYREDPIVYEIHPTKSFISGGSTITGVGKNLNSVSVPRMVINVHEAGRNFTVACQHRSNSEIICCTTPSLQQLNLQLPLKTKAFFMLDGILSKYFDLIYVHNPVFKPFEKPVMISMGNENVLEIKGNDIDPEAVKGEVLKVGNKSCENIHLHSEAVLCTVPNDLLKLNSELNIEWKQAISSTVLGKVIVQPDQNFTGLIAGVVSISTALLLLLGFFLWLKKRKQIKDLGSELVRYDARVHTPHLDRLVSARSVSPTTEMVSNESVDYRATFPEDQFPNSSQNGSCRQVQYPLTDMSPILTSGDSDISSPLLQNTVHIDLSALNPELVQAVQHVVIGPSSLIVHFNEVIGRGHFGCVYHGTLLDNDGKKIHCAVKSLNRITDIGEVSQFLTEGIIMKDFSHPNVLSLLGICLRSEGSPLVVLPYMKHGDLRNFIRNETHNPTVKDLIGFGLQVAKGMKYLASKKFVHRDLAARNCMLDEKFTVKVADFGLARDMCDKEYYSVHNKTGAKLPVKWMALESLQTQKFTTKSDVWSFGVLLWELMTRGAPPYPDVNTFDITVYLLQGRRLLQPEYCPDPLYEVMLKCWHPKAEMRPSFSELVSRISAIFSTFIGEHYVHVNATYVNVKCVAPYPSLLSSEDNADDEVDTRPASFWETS

**Q.** With CN(C)c1ccc(C(=O)Nc2cccc(NC(=O)COc3ccc4c(=O)ccoc4c3)c2)cc1 as the molecule, how does the IC50 [1] read?
**A.** 3 nM

**Q.** And the IC50 [2]?
**A.** > 10 µM

**Q.** And the IC50 [3]?
**A.** > 10 µM

**Q.** And the IC50 [4]?
**A.** > 10 µM

**Q.** And the IC50 [5]?
**A.** > 10 µM

**Q.** What about the IC50 (Myotonin-protein kinase) of the same molecule?
**A.** > 10 µM

**Q.** What about the IC50 [6] of the same molecule?
**A.** > 10 µM

**Q.** And the IC50 [7]?
**A.** > 10 µM

**Q.** And the IC50 [8]?
**A.** > 10 µM

**Q.** And the IC50 [9]?
**A.** > 10 µM

**Q.** And the IC50 [10]?
**A.** > 10 µM

**Q.** What about the IC50 [11] of the same molecule?
**A.** > 10 µM

**Q.** What about the IC50 [12] of the same molecule?
**A.** > 10 µM

**Q.** What about the IC50 [13] of the same molecule?
**A.** > 10 µM

**Q.** And the IC50 [14]?
**A.** > 10 µM

**Q.** And the IC50 [15]?
**A.** > 10 µM

**Q.** And the IC50 [16]?
**A.** > 10 µM

**Q.** What about the IC50 [17] of the same molecule?
**A.** > 10 µM

**Q.** And the IC50 [18]?
**A.** > 10 µM

**Q.** What about the IC50 [19] of the same molecule?
**A.** > 10 µM

**Q.** And the IC50 [20]?
**A.** > 10 µM

**Q.** What about the IC50 [21] of the same molecule?
**A.** > 10 µM

**Q.** And the IC50 [22]?
**A.** > 10 µM

**Q.** What about the IC50 [23] of the same molecule?
**A.** > 10 µM

**Q.** What about the IC50 [24] of the same molecule?
**A.** > 10 µM

**Q.** And the IC50 [25]?
**A.** > 10 µM
